Measurements: ChEMBL document CHEMBL1201862, “PubChem BioAssay data set” (2004)
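Where inhibition never reached the appropriate level, the endpoint shown equals the highest concentration tested. Otherwise, values were interpolated linearly from a five-concentration, 48-hour dose response in 96-well plates. Here, GI50 denotes the concentration required for 50% inhibition of growth.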 Activity calls are given as the source filed them. Rule as the data show it: active = GI50 up to about 1.1 µM and inactive = higher.

Columns and labels:
Test in all cases: NCI tumour cell line growth inhibition, 48 h
[1] = test system: MCF7
[2] = test system: 786-0
[3] = test system: HT-29
[4] = test system: Malme-3M
[5] = test system: CAKI-1
[6] = test system: UO-31
[7] = test system: OVCAR-8
[8] = test system: HOP-92
[9] = test system: SF-539
[10] = test system: DU-145
[11] = test system: MDA-MB-231
[12] = test system: NCI/ADR-RES
[13] = test system: M14
[14] = test system: SR
[15] = test system: SK-MEL-5
[16] = test system: TK-10
[17] = test system: UACC-62
[18] = test system: HCT-15
[19] = test system: UACC-257
[20] = test system: SNB-75
[21] = test system: SF-268
[22] = test system: MDA-MB-435
[23] = test system: RPMI-8226
[24] = test system: SK-OV-3
[25] = test system: ACHN
[26] = test system: HL-60
[27] = test system: PC-3
[28] = test system: U-251
[29] = test system: NCI-H226
[30] = test system: MDA-N
[31] = test system: SF-295
[32] = test system: Hs-578T
[33] = test system: CCRF-CEM
[34] = test system: SW-620
[35] = test system: EKVX
[36] = test system: A549
[37] = test system: SK-MEL-2
[38] = test system: NCI-H522
[39] = test system: SNB-19
[40] = test system: IGROV-1
[41] = test system: COLO 205
[42] = test system: BT-549
[43] = test system: NCI-H23
[44] = test system: T47D
[45] = test system: NCI-H460
[46] = test system: RXF 393
[47] = test system: MOLT-4
[48] = test system: OVCAR-5
[49] = test system: K562
[50] = test system: KM12
[51] = test system: HCT-116

CN1CCN(Cc2cc3c(nn2)-c2ccccc2C3=O)CC1
GI50 [1]: 30.8 µM (inactive)
GI50 [2]: 40.6 µM (inactive)
GI50 [3]: 53 µM (inactive)
GI50 [4]: 19.1 µM (inactive)
GI50 [5]: > 100 µM (inactive)
GI50 [6]: 32.7 µM (inactive)
GI50 [7]: 95.7 µM (inactive)
GI50 [8]: > 100 µM (inactive)
GI50 [9]: 72.9 µM (inactive)
GI50 [10]: > 100 µM (inactive)
GI50 [11]: > 10 µM (inactive)
GI50 [12]: 50.1 µM (inactive)
GI50 [13]: 31.2 µM (inactive)
GI50 [14]: 18.3 µM (inactive)
GI50 [15]: 16.9 µM (inactive)
GI50 [16]: > 100 µM (inactive)
GI50 [17]: 44.4 µM (inactive)
GI50 [18]: 26.2 µM
GI50 [19]: 19.2 µM (inactive)
GI50 [20]: > 100 µM (inactive)
GI50 [21]: > 100 µM (inactive)
GI50 [22]: 23.7 µM (inactive)
GI50 [23]: > 100 µM (inactive)
GI50 [24]: > 100 µM (inactive)
GI50 [25]: 26.2 µM (inactive)
GI50 [26]: 21 µM (inactive)
GI50 [27]: 37.8 µM (inactive)
GI50 [28]: 44.3 µM (inactive)
GI50 [29]: > 100 µM (inactive)
GI50 [30]: 24.4 µM (inactive)
GI50 [31]: > 100 µM (inactive)
GI50 [32]: > 100 µM (inactive)
GI50 [33]: 54.6 µM (inactive)
GI50 [34]: 52.7 µM (inactive)
GI50 [35]: 46.3 µM (inactive)
GI50 [36]: > 100 µM (inactive)
GI50 [37]: > 100 µM (inactive)
GI50 [38]: 14.3 µM (inactive)
GI50 [39]: 43.5 µM (inactive)
GI50 [40]: 38.5 µM (inactive)
GI50 [41]: 17.7 µM (inactive)
GI50 [42]: 53.6 µM (inactive)
GI50 [43]: 35 µM (inactive)
GI50 [44]: 49 µM (inactive)
GI50 [45]: 34.4 µM (inactive)
GI50 [46]: > 100 µM (inactive)
GI50 [47]: 38.7 µM (inactive)
GI50 [48]: > 100 µM (inactive)
GI50 [49]: 47.1 µM (inactive)
GI50 [50]: 59.2 µM (inactive)
GI50 [51]: 30.4 µM (inactive)
